{
  "source": "patent US20220233556A1",
  "about": "“COMPOSITIONS AND METHODS FOR TREATING OPHTHALMIC CONDITIONS” (Medicon Pharmaceuticals, Inc., priority 2017, published 2022)",
  "key": {"Con A-induced dry eye": {"system": "Con A-induced dry eye", "test": "Con A-induced dry eye disease (DED) in rabbits: TBUT, tear osmolarity, STT, tear lactoferrin", "type": "in vivo, New Zealand White (NZW) rabbits", "description": "Con A was injected under ultrasound guidance into all the lacrimal glands and the success of the injection was verified by a post-injection ultrasound image (see FIG. 1 and FIG. 2). […] This variation explains why the blind injections recommended in the original method are often unsuccessful. This was confirmed by mixing the Con A solution with methylene blue and tracking its course after injection. In about ⅓ of the cases, Con A ended up outside the gland.\nFour parameters of efficacy were evaluated instead of the usual one or two. They include (a) the tear break up time (TBUT), determined using 0.2% fluorescein over the eye and recording the time taken to develop black dots, lines or obvious disruption of the fluorescein film; (b) tear osmolarity, measured using TearLab Osmolarity Test and following the manufacturer's instructions (TearLab Corp., San Diego, Calif.); (3) Schirmer tear test (STT), determined using Schirmer strips (EagleVision, Denville, N.J.) inserted between the cornea and the palpebral conjunctiva at the mid-point of the lower lid and measuring the length of moistened strip at 5 min; and (4) tear lactoferrin levels measured by ELISA kit (MyBiosource, San Diego, Calif.) following the instructions of the manufacturer. All four have been used in clinical practice and correlate with the clinical activity of the disease. The STT is the least reliable and, as result, it is clinically used less than half as frequently as TBUT.\nThe injections of Con A to the lacrimal glands were repeated weekly as needed. When longer than a 1-week periods of study are needed, repeat injections prolong dry eye for at least 3 weeks, making the originally acute model chronic.\nPS Suppresses Con A—Induced Dry Eye in Rabbits. The effect of PS on dry eye was determined in New Zealand White (NZW) rabbits, 2-3 kg (Charles River Labs, Waltham, Mass.). These rabbits were housed singly in rooms with strict temperature (70±5° F.) and humidity (45±5%) control and acclimated for at least 2 weeks prior to induction of dry eye by injection of Con A as above. NZW rabbits with Con A-induced dry eye (three sets of injections) were treated with PS formulated as nanoparticles and administered topically as eye drops 3×/day for 21 days, starting on the day of Con A injection. […] Similar results were obtained on days 5 and 14 (data not shown). […]\nThe efficacy of lower concentrations of PS. The efficacy of lower concentrations of PS, 0.1% and 0.2% in DED, was also evaluated. The same animal model (rabbits with Concanavalin A-induced DED) was used. The same methodology described herein was followed, except that PS was administered as two eye drops per eye (˜25 μL each) four times a day. PS was formulated in: 10% (2-hydroxypropyl)-β-cyclodextrin, 4% Tween 80, 2.5% Vitamin E TPGS, 1.4% polyvinyl alcohol (13,000-26,000 molecular weight), 0.001% polyquad, as described herein. The Table below summarizes the corresponding findings: […]"}, "NF-κB [1]": {"system": "NF-κB", "test": "NF-κB activation in the ILG of rabbits with DED", "type": "in vivo", "conditions": "1 week of treatment, vs vehicle", "description": "(§1) FIGS. 6A and 6B illustrate that PS suppresses the activation of NF-κB and MAPKs. In FIG. 6A, NF-κB activation was determined by EMSA in cultured human conjunctival cells stimulated with TNFα (top) and in the ILG of rabbits with Con A-induced DED and treated for one week with either vehicle or PS (bottom). In FIG. 6B, immunoblots detecting the activation of MAPKs by phosphorylation in cultured human conjunctival cells treated with PS at the indicated concentrations for 3.5 h. Loading control: β-actin.\nHuman conjunctival cells were treated with various concentrations of PS. Five hours later, TNF-α was added to the culture medium to a final concentration of 10 ng/ml and the status of NF-κB activation was determined by EMSA 1 h later. […] Similarly, after 1 week of treatment, PS suppressed NF-κB activation in the ILG of rabbits with DED compared to those treated with vehicle."}, "NF-κB [2]": {"system": "NF-κB", "test": "NF-κB activation by EMSA in TNF-α-stimulated human conjunctival cells", "type": "cell-based", "conditions": "PS 5 h, then TNF-α 10 ng/ml, EMSA 1 h later", "description": "as §1\nThe Mechanism of Action of PS in Dry Eye. Tissue culture, animal and human studies have established inflammation as the core mechanism of DED. To determine the mechanism of action of PS in DED the response to PS of several factors known to play an important role in the inflammation associated with DED was explored. They include NF-κB; the cytokines TGF-β, IL-1β, IL-6 and IL-8; the collagenases MMP-1 and MMP-9; and PGE2. In these studies human conjunctival epithelial cells were used, the Wong-Kilbourne derivative of Chang conjunctival cells (clone 1 to 5c-4l American Type Culture Collection (Manassas, Va.) certified cell line, 20.2).\nHuman conjunctival cells were treated with various concentrations of PS. Five hours later, TNF-α was added to the culture medium to a final concentration of 10 ng/ml and the status of NF-κB activation was determined by EMSA 1 h later. […]"}, "[3]": {"test": "Safety of topically applied PS in rabbits (slit lamp, intraocular pressure, necropsy)", "type": "in vivo", "excerpt": "The Safety of Topically Applied PS."}, "[4]": {"test": "PS biodistribution after topical alternative sodium alginate-based in-situ gel", "type": "in vivo, New Zealand white rabbits", "conditions": "New Zealand white, rabbit, 3 % PS in formulation", "description": "Composition: 3% PS, 1.5% sodium alginate, 15% Tween 80, 10% (2-hydroxypropyl)-β-cyclodextrin, 10% polyethylene glycol 400 (PEG400), 5% polyoxyl stearate.\nPreparation Method: A sodium alginate solution was prepared by adding an appropriate amount of sodium alginate to deionized water and heating the mixture to 90° C. with fast stirring (500 rpm). Once sodium alginate was completely dissolved, the solution was filtered through a 0.22 μm filter. Then, PS and additional excipients were added to achieve the above concentrations and stirred at 50° C. at 500 rpm until complete dissolution.\nResults: PS in this formulation was administered topically to the eyes of New Zealand white rabbits and its biodistribution was determined as above."}, "[5]": {"conditions": "1 week of treatment, comparison with ophthalmic NSAIDs (FIG. 5)"}, "[6]": {"conditions": "PS 0.1%, two eye drops four times a day, Baseline, mean ± SEM (n = 12)"}, "[7]": {"conditions": "PS 0.1%, two eye drops four times a day, Day 5, mean ± SEM (n = 12)"}, "[8]": {"conditions": "PS 0.2%, two eye drops four times a day, Baseline, mean ± SEM (n = 12)"}, "[9]": {"conditions": "PS 0.2%, two eye drops four times a day, Day 5, mean ± SEM (n = 12)"}, "[10]": {"conditions": "PS nanoparticles, eye drops 3x/day for 21 days"}, "[11]": {"conditions": "weekly during 1-month application"}, "[12]": {"conditions": "conjunctiva, read-out: PS in Conjunctiva"}},
  "note": "Where two headings read alike, the source gives them in different places.",
  "data": [
    {"smiles": "CCOP(=O)(OCC)OCCCCOC(=O)CC1=C(C)/C(=C/c2ccc([S+](C)[O-])cc2)c2ccc(F)cc21", "note": "(stereo not drawn) [PS, phosphosulindac]", "values": [
      {"measurement": "STT", "setting": "Con A-induced dry eye; [5]", "result": "no significant effect"},
      {"measurement": "TBUT", "setting": "Con A-induced dry eye; [5]", "result": "normalized"},
      {"measurement": "osmolarity", "setting": "Con A-induced dry eye; [5]", "result": "normalized"},
      {"measurement": "STT", "setting": "Con A-induced dry eye; [6]", "result": "16.4 ± 1.5", "unit": "mm"},
      {"measurement": "TBUT", "setting": "Con A-induced dry eye; [6]", "result": "57.9 ± 1.5", "unit": "s"},
      {"measurement": "STT", "setting": "Con A-induced dry eye; [7]", "result": "12.0 ± 0.8", "unit": "mm"},
      {"measurement": "TBUT", "setting": "Con A-induced dry eye; [7]", "result": "45.4 ± 5.2", "unit": "s"},
      {"measurement": "STT", "setting": "Con A-induced dry eye; [8]", "result": "15.9 ± 1.0", "unit": "mm"},
      {"measurement": "TBUT", "setting": "Con A-induced dry eye; [8]", "result": "57.9 ± 2.1", "unit": "s"},
      {"measurement": "STT", "setting": "Con A-induced dry eye; [9]", "result": "11.8 ± 0.9", "unit": "mm"},
      {"measurement": "TBUT", "setting": "Con A-induced dry eye; [9]", "result": "45.7 ± 4.5", "unit": "s"},
      {"measurement": "TBUT", "setting": "Con A-induced dry eye; [10]", "result": "restored to normal"},
      {"measurement": "tear lactoferrin levels", "setting": "Con A-induced dry eye; [10]", "result": "restored to normal"},
      {"measurement": "tear osmolarity", "setting": "Con A-induced dry eye; [10]", "result": "restored to normal"},
      {"measurement": "STT value", "setting": "Con A-induced dry eye; PS nanoparticles, eye drops 3x/day for 21 days, difference from vehicle significant only for trend", "result": "improved"},
      {"measurement": "NF-κB activation in the ILG", "setting": "NF-κB [1]", "result": "suppressed"},
      {"measurement": "activation of NF-κB", "setting": "NF-κB [2]", "result": "significantly suppressed"},
      {"measurement": "signs of uveitis", "setting": "[3]; 1-month application", "result": "No animal developed signs of uveitis"},
      {"measurement": "Intraocular pressure", "setting": "[3]; Tonopen, 1-month application", "result": "remained normal"},
      {"measurement": "tolerability of ocular application", "setting": "[3]; rabbits, topical", "result": "very well tolerated"},
      {"measurement": "slit lamp: corneal abnormalities (staining defects, vascularization, opacification, epithelial defects, stromal thinning, melts)", "setting": "[3]; [11]", "result": "nor were there signs of corneal abnormalities"},
      {"measurement": "slit lamp: follicular/papillary response or injection of the conjunctiva", "setting": "[3]; [11]", "result": "no evidence of follicular/papillary response or injection of the conjunctiva"},
      {"measurement": "concentration at 1 h", "setting": "[4]; aqueous humor, read-out: PS in Aqueous humor", "result": 400, "unit": "nM"},
      {"measurement": "concentration at 1 h", "setting": "[4]; [12]", "result": 4900, "unit": "nM"},
      {"measurement": "concentration at 3 h", "setting": "[4]; [12]", "result": 2100, "unit": "nM"},
      {"measurement": "concentration at 5 h", "setting": "[4]; [12]", "result": 2300, "unit": "nM"},
      {"measurement": "concentration at 8 h", "setting": "[4]; conjunctiva, 8 h", "result": 1300, "unit": "nM"},
      {"measurement": "concentration at 1 h", "setting": "[4]; cornea, read-out: PS in Cornea", "result": 17800, "unit": "nM"},
      {"measurement": "concentration at 3 h", "setting": "[4]; cornea, read-out: PS in Cornea", "result": 5000, "unit": "nM"},
      {"measurement": "concentration at 5 h", "setting": "[4]; cornea, read-out: PS in Cornea", "result": 1000, "unit": "nM"}
    ]}
  ]
}
